Test results: patent publication US10307439B2, “Substituted nucleosides, nucleotides and analogs thereof” (priority 2014, dated 2019)

What was measured:
[1] = test system: human β-coronavirus strain OC43 or human α-coronavirus strain 229E; experiment: Coronavirus assay (cytopathic effect, CellTiter-Glo, HeLa or MRC-5 cells); type: cell-based; conditions: Betacoronavirus 1; for inhibition: at one or more of the concentrations 75 μM, 10 μM and 2 μM, strain OC43 or 229E not specified; for EC50: coronavirus strain OC43 or 229E not specified, 4 h pre-incubation, 5 days
MERS = experiment: microbe, parasite or virus in culture; type: cell-based; conditions: Middle East respiratory syndrome-related coronavirus, 96 h
SARS polymerase = SARS polymerase (Severe acute respiratory syndrome coronavirus, UniProt P0C6X7); experiment: biochemical; design: species or system SARS virus
[2] = test system: TC-83 strain Venezuelan equine encephalitis virus; experiment: microbe, parasite or virus in culture; type: cell-based
Chikungunya virus = experiment: Chikungunya assay; type: cell-based; conditions: 2 h pre-incubation

Which inhibition [1] does the source give for `C[C@H](NP(=O)(OC[C@@]1(F)O[C@@H](n2cnc3c(=O)[nH]c(N)nc32)[C@](C)(O)[C@@H]1F)Oc1ccccc1)C(=O)OC1CCCCC1` (stereo partly drawn) [Compound 14] here?
Its inhibition is at least 50%.

`CCOc1nc(N)nc2c1ncn2[C@@H]1O[C@]2(F)COP(=O)(OC(C)C)O[C@H]2[C@@]1(C)F` (stereo partly drawn) [Compound 225] was tested. Which inhibition [1] did it give?
Its inhibition is at least 50%.

`CCOc1nc(N)nc2c1ncn2[C@@H]1O[C@](CF)(COP(=O)(N[C@@H](C)C(=O)OC2CCCCC2)Oc2ccccc2)[C@@H](O)[C@@]1(C)O` (stereo partly drawn) [Compound 36] was tested. Which EC90 (MERS) did it give?
Its EC90 is under 10 µM.

How did the EC90 (MERS) turn out when `C[C@H](NP(=O)(OC[C@H]1O[C@@H](n2cnc3c(=O)[nH]c(N)nc32)[C@](C)(Cl)[C@@H]1O)Oc1ccccc1)C(=O)OC1CCCCC1` (stereo partly drawn) [Compound 266] was run?
The EC90 was under 10 µM.

How did the IC50 (SARS polymerase) turn out when `C[C@@]1(F)[C@H](O)[C@@](CF)(COP(=O)(O)OP(=O)(O)OP(=O)(O)O)O[C@H]1n1cnc2c(=O)[nH]c(N)nc21` [Compound 162] was run?
The IC50 was under 10 µM.

`CCOc1nc(N)nc2c1ncn2[C@@H]1O[C@](F)(COP(=O)(N[C@@H](C)C(=O)OC(C)C)Oc2ccccc2)[C@@H](F)[C@@]1(C)O` (stereo partly drawn) [Compound 22] was tested. Which inhibition [1] did it give?
The inhibition was at least 50%.

For `C#C[C@]1(O)[C@H](n2cnc3c(=O)[nH]c(N)nc32)O[C@](F)(COP(=O)(O)OP(=O)(O)OP(=O)(O)O)[C@H]1F` [Compound 103], which IC50 (SARS polymerase) is on record?
Its IC50 is under 10 µM.

Which inhibition [1] does the source give for `CCOc1nc(N)nc2c1ncn2[C@@H]1O[C@](F)(COP(=O)(OCOC(=O)OC(C)C)OCOC(=O)OC(C)C)[C@@H](O)[C@@]1(C)F` [Compound 83] here?
The inhibition was at least 50%.

What about the EC50 [1] of the same compound?
Its EC50 is under 10 µM.

With `CC(C)OC(=O)OCOP(=O)(OCOC(=O)OC(C)C)OC[C@@]1(F)O[C@@H](n2ccc(=O)[nH]c2=O)[C@](C)(O)[C@@H]1O` [Compound 9] as the compound, how does the EC50 [2] read?
The EC50 was under 10 µM.

And the EC50 (Chikungunya virus)?
Its EC50 is under 10 µM.

For `C#C[C@]1(O)[C@H](n2cnc3c(OCC)nc(N)nc32)O[C@](F)(CO[P@](=O)(N[C@@H](C)C(=O)OC2CCCCC2)Oc2ccccc2)[C@H]1O` [Compound 27], which EC90 (MERS) is on record?
The EC90 was 10 to 50 µM.

Which inhibition [1] does the source give for `CCOc1nc(N)nc2c1ncn2[C@@H]1O[C@](F)(COP(=O)(N[C@@H](C)C(=O)OCC(C)(C)C)Oc2cccc3ccccc23)[C@@H](O)[C@@]1(C)F` (stereo partly drawn) [Compound 234] here?
The inhibition was at least 50%.

Which inhibition [1] does the source give for `CCOc1nc(N)nc2c1ncn2[C@@H]1O[C@](F)(COP(=O)(OCOC(=O)OC(C)C)OCOC(=O)OC(C)C)[C@@H](O)[C@@]1(C)O` [Compound 55] here?
Its inhibition is at least 50%.

What about the EC50 [1] of the same compound?
The EC50 was under 10 µM.

What about the EC50 [2] of the same compound?
The EC50 was under 10 µM.

And the EC50 (Chikungunya virus)?
The EC50 was under 10 µM.

Which IC50 (SARS polymerase) does the source give for `C[C@]1(F)[C@H](n2cnc3c(=O)[nH]c(N)nc32)O[C@](F)(COP(=O)(O)OP(=O)(O)OP(=O)(O)O)[C@H]1O` [Compound 19] here?
Its IC50 is under 10 µM.

Which results are given for `CCOc1nc(N)nc2c1ncn2[C@@H]1O[C@](F)(CO[P@@](=O)(N[C@@H](C)C(=O)OC2CCCCC2)Oc2ccccc2)[C@@H](O)[C@@]1(C)F` (single isomer, unassigned) [Compound 212b]?
inhibition [1]: ≥ 50%; EC50 [1]: < 10 µM

How did the IC50 (SARS polymerase) turn out when `C[C@@]1(O)[C@H](O)[C@@](CF)(COP(=O)(O)OP(=O)(O)OP(=O)(O)O)O[C@H]1n1cnc2c(=O)[nH]c(N)nc21` [Compound 34] was run?
The IC50 was under 10 µM.

Which EC50 [1] does the source give for `CCOc1nc(N)nc2c1ncn2[C@@H]1O[C@](F)(COP(=O)(N[C@@H](C)C(=O)OC2CCCCC2)Oc2ccccc2)[C@@H](F)[C@@]1(C)O` (stereo partly drawn) [Compound 16] here?
Its EC50 is under 10 µM.

With `C[C@]1(O)[C@H](n2cnc3c(=O)[nH]c(N)nc32)O[C@](F)(COP(=O)(O)OP(=O)(O)OP(=O)(O)O)[C@H]1F` [Compound 101] as the compound, how does the IC50 (SARS polymerase) read?
Its IC50 is under 10 µM.

For `CCOc1nc(N)nc2c1ncn2[C@@H]1O[C@](F)(COP(=O)(OCOC(=O)OC(C)C)OCOC(=O)OC(C)C)[C@@H](F)[C@@]1(C)O` [Compound 57], which inhibition [1] is on record?
Its inhibition is at least 50%.

What about the EC50 [1] of the same compound?
The EC50 was under 10 µM.

What about the EC90 (MERS) of the same compound?
Its EC90 is under 10 µM.

With `CCOc1nc(N)nc2c1ncn2[C@@H]1O[C@](F)(CO[P@](=O)(N[C@@H](C)C(=O)OC2CCCCC2)Oc2ccccc2)[C@@H](O)[C@@]1(C)F` (single isomer, unassigned) [Compound 212a] as the compound, how does the inhibition [1] read?
Its inhibition is at least 50%.

What about the EC50 [1] of the same compound?
Its EC50 is under 10 µM.

`C[C@@]1(Cl)[C@H](O)[C@@H](COP(=O)(O)OP(=O)(O)OP(=O)(O)O)O[C@H]1n1cnc2c(=O)[nH]c(N)nc21` [Compound 246] was tested. Which IC50 (SARS polymerase) did it give?
The IC50 was under 10 µM.

Which EC90 (MERS) does the source give for `CCOc1nc(N)nc2c1ncn2[C@@H]1O[C@H](COP(=O)(N[C@@H](C)C(=O)OC2CCCCC2)Oc2ccccc2)[C@@H](O)[C@@]1(C)Cl` (stereo partly drawn) [Compound 267] here?
The EC90 was 10 to 50 µM.

Which EC50 [1] does the source give for `CCOc1nc(N)nc2c1ncn2[C@@H]1O[C@](CN=[N+]=[N-])(COP(=O)(OCOC(=O)OC(C)C)OCOC(=O)OC(C)C)[C@@H](O)[C@H]1F` [Compound 179] here?
The EC50 was under 10 µM.

Which EC90 (MERS) does the source give for `CCOc1nc(N)nc2c1ncn2[C@@H]1O[C@](F)(CO[P@](=O)(N[C@@H](C)C(=O)OC2CCCCC2)Oc2ccccc2)[C@@H](O)[C@@]1(C)F` [Compound 25] here?
Its EC90 is 10 to 50 µM.

And the EC50 [2]?
Its EC50 is under 10 µM.

And the EC50 (Chikungunya virus)?
Its EC50 is under 10 µM.

For `C#C[C@@]1(O)[C@H](O)[C@@H](COP(=O)(O)OP(=O)(O)OP(=O)(O)O)O[C@H]1n1cnc2c(=O)[nH]c(N)nc21` [Compound 203], which IC50 (SARS polymerase) is on record?
Its IC50 is under 10 µM.

With `C#C[C@]1(F)[C@H](n2cnc3c(=O)[nH]c(N)nc32)O[C@](F)(COP(=O)(O)OP(=O)(O)OP(=O)(O)O)[C@H]1O` [Compound 123] as the compound, how does the IC50 (SARS polymerase) read?
Its IC50 is under 10 µM.

With `CC(C)(C)C(=O)OCOP(=O)(OCOC(=O)C(C)(C)C)OC[C@H]1O[C@@H](n2ccc(=O)[nH]c2=O)[C@](C)(O)[C@@H]1O` [Compound 265] as the compound, how does the EC90 (MERS) read?
Its EC90 is 10 to 50 µM.

What about the EC50 [2] of the same compound?
Its EC50 is under 10 µM.

And the EC50 (Chikungunya virus)?
Its EC50 is under 10 µM.
